# Experimental data from patent US20250313528A1, “NOVEL COMPOUND AND PHARMACEUTICAL COMPOSITION FOR PREVENTING OR TREATING PULMONARY FIBROSIS COMPRISING SAME AS ACTIVE INGREDIENT” (GIL MEDICAL CENTER, priority 2022, published 2025).
# Test system: FN, COL1A1, and α-SMA
# Assay: qRT-PCR of fibrosis-related genes in TGF-β1-induced DHLF-IPF cells
# Type: cell-based, human
# Conditions: 10 μM pretreatment 1 hour, TGF-β1 1 ng/ml 48 hours, FIG. 4c/4d
# Protocol: MRC-5 and DHLF-IPF cells were each cultured in growth medium, and the medium was removed. […] The medium was then removed, and the cells were washed once with PBS. Intracellular total RNA was extracted from the cultured cells using TRIzol reagent (TaKaRa Bio Inc., Japan) for gene expression analysis. 1 mL of TRIzol reagent was added to lyse the cells and denature the tissue. The lysate was transferred to each 1.5 mL tube, and 200 μL of chloroform was added thereto, followed by vortexing for 20 seconds to ensure complete mixing. After incubating at room temperature for 15 minutes, the mixture was centrifuged at 14,000 rpm for 20 minutes to obtain the supernatant. After adding an equal volume of isopropyl alcohol, the tubes were inverted and incubated at room temperature for 10 minutes. The sample was centrifuged at 14,000 rpm for 15 minutes to obtain an RNA pellet, which was washed by centrifugation with 70% ethanol for use on RNA at 14,000 rpm for 5 minutes, and dried for 5 minutes. The dried RNA sample was added with 20 μL of distilled water treated with 0.1% diethyl pyrocarbonate (DEPC) to dissolve the pallet and the resultant was used as a sample for cDNA synthesis. 1 μL of the same was used to measure the RNA concentration and purity at O.D. 260/280 nm using a Nanodrop.
# Single-stranded cDNA synthesis was performed by mixing 1 μg of the extracted total RNA with 1 μL of oligo-d(T) primer ([…]) and 10 mM dNTP (TaKaRa Bio Inc., Japan), reacting at 65° C. for 5 minutes, followed by rapid cooling. To this template, 4 μL of 5×RT buffer, 0.5 μL of RNA inhibitor, and 100 units of RTase (TaKaRa Bio Inc., Japan) were added, and the total volume was adjusted to 20 μL using DEPC-treated distilled water. […]
# Each gene expression level was measured using real-time PCR. […] The specificity of the amplified product was confirmed through melting curve analysis, and the target genes were quantified and compared using GAPDH as a control gene.
row,SMILES,"gene expression levels of FN, COL1A1, and α-SMA"
1,C=CCOC(=O)C(CSC(=S)NCCCC[S+](C)[O-])NC(C)=O (centres unmarked) [Compound 2],significantly reducing the expression levels compared to sulforaphane
2,CCOC(=O)C(CSC(=S)NCCCC[S+](C)[O-])NC(C)=O (centres unmarked) [Compound 1],significantly reducing the expression levels compared to sulforaphane
